Source: ChEMBL document CHEMBL1151671, “Cytotoxic oxygenated desmosterols of the red alga Galaxaura marginata” (1996)
≈ marks a conversion by molar mass, not a printed value.

What was measured:
Type in all cases: functional
Details in all cases: read-out: ED50 (the source's name)
[1] = tested on: HT-29; test: Cytotoxicity against human HT29 cells by MTT assay
[2] = tested on: KB; test: Cytotoxicity against human KB cells by MTT assay
[3] = tested on: A549; test: Cytotoxicity against human A549 cells by MTT assay
[4] = tested on: P388; test: Cytotoxicity against mouse P388 cells by MTT assay

SMILES: C=C(C)C(CC[C@@H](C)[C@H]1CC[C@H]2[C@@H]3CC=C4C[C@@H](O)CC[C@]4(C)[C@H]3CC[C@]12C)OO (stereo partly specified)
- EC50 [1]: 0.43 µg/mL (≈ 1.03 µM)
- EC50 [2]: 0.33 µg/mL (≈ 0.792 µM)
- EC50 [3]: 0.64 µg/mL (≈ 1.54 µM)
- EC50 [4]: 0.26 µg/mL (≈ 0.624 µM)

SMILES: CC(C)=CCC[C@@H](C)[C@H]1CC[C@H]2[C@@H]3CC=C4C[C@@H](O)CC[C@]4(C)[C@H]3CC[C@]12C [DESMOSTEROL]
- EC50 [1]: > 50 µg/mL
- EC50 [2]: > 50 µg/mL
- EC50 [3]: > 50 µg/mL
- EC50 [4]: 33.5 µg/mL (≈ 87.2 µM)

SMILES: C=C(C)C(O)CC[C@@H](C)[C@H]1CC[C@H]2[C@@H]3CC=C4C[C@@H](O)CC[C@]4(C)[C@H]3CC[C@]12C (stereo partly specified)
- EC50 [1]: 0.37 µg/mL (≈ 0.924 µM)
- EC50 [2]: 0.67 µg/mL (≈ 1.67 µM)
- EC50 [3]: 1.61 µg/mL (≈ 4.02 µM)
- EC50 [4]: 0.36 µg/mL (≈ 0.899 µM)

SMILES: C[C@H](C/C=C/C(C)(C)OO)[C@H]1CC[C@H]2[C@@H]3CC=C4C[C@@H](O)CC[C@]4(C)[C@H]3CC[C@]12C
- EC50 [4]: 0.22 µg/mL (≈ 0.528 µM)

SMILES: C[C@H](CCC1OC1(C)C)[C@H]1CC[C@H]2[C@@H]3C[C@@H](O)C4=CC(=O)CC[C@]4(C)[C@H]3CC[C@]12C (mixture of isomers)
- EC50 [1]: 0.87 µg/mL
- EC50 [2]: 0.3 µg/mL
- EC50 [3]: 3.14 µg/mL
- EC50 [4]: 0.75 µg/mL

SMILES: C[C@H](C/C=C/C(C)(C)O)[C@H]1CC[C@H]2[C@@H]3CC=C4C[C@@H](O)CC[C@]4(C)[C@H]3CC[C@]12C
- EC50 [1]: 0.6 µg/mL (≈ 1.5 µM)
- EC50 [2]: 0.61 µg/mL (≈ 1.52 µM)
- EC50 [3]: 1.08 µg/mL (≈ 2.7 µM)
- EC50 [4]: 0.15 µg/mL (≈ 0.374 µM)
